The target of test [1] is Aldo-keto reductase family 1 member B1 (Bos taurus) (UniProt P16116). Briefly: Inhibition of bovine aldose reductase at 12.5 uM.
Test [2] addresses Aldo-keto reductase family 1 member B1 (Bos taurus, UniProt P16116). Put plainly: Inhibition of bovine aldose reductase.

Usually inhibition stands for the relative decrease from the control value, in per cent. A lower inhibition goes with a response near the control. Broadly, the IC50 is the midpoint of a concentration-inhibition curve.

Turning to `COc1ccc(/C=C2\SC(=O)NC2=O)cc1O`, the inhibition in test [1] was 33%.
`O=C(O)COc1cccc(/C=C2\SC(=O)N(CC(=O)O)C2=O)c1` showed a 50% inhibitory concentration (IC50) in test [2] of 230 nM.
Take `COc1cc(/C=C2\SC(=O)NC2=O)ccc1O`: the IC50 in test [2] came out at 11800 nM.
In test [2], `O=C(O)COc1ccc(/C=C2\SC(=O)N(CC(=O)O)C2=O)cc1` displayed an IC50 of 600 nM.
For the compound `COc1ccc(/C=C2\SC(=O)N(CC(=O)O)C2=O)cc1O`, the IC50 in test [2] was determined as 560 nM.
Turning to `COc1cc(/C=C2\SC(=O)N(CC(=O)O)C2=O)ccc1OCC(=O)O`, inhibition in test [2] was half-maximal at 260 nM (IC50).
On the same count and under the same terms, for `COc1cc(/C=C2\SC(=O)N(CC(=O)O)C2=O)ccc1O` the value was 700 nM.

The values above are taken from ChEMBL document CHEMBL1148892, “Evaluation of in vitro aldose redutase inhibitory activity of 5-arylidene-2,4-thiazolidinediones” (Bioorg Med Chem Lett, 2007).
